Activity calls are given as the source filed them.
How the values were obtained:
[1] = molecular target: Caspase-6 (Homo sapiens, UniProt P55212); test: human caspase-6 inhibitors, dose response, biochemical, VEID-R110 fluorescence, cherry-pick (AID 720632)
[2] = A549 cell cytotoxicity, dose response, cytotoxicity control, 24 h, CellTiter-Glo luminescence, cherry-picks (AID 1053115); type: functional, cell-based; conditions: A549, 24 h
[3] = molecular target: T1, Methionyl-tRNA synthetase, putative (Trypanosoma brucei brucei, UniProt Q38C91); type: functional, Trypanosoma brucei brucei strain 927/4 GUTat10.1
T1 sequence (Q38C91 whole entry): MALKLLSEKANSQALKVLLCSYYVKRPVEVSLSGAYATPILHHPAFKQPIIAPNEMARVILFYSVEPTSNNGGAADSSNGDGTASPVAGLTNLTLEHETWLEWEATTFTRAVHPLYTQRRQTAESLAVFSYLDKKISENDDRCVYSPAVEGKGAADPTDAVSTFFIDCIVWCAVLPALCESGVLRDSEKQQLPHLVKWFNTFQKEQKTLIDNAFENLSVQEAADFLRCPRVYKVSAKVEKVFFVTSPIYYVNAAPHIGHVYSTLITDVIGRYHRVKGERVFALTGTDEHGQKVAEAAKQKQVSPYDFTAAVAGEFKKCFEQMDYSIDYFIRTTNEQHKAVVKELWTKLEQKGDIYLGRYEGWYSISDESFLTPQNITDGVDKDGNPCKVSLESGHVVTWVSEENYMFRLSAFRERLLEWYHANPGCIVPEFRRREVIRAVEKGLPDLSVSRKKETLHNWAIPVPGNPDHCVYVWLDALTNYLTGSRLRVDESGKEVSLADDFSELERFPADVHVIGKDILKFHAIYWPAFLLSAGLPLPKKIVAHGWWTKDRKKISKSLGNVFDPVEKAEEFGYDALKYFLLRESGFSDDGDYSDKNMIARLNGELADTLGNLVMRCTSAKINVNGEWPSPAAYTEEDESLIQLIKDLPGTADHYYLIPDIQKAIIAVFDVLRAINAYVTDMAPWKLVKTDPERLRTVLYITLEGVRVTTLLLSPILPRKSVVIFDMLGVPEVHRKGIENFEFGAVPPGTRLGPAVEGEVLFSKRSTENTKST

[4] = Late stage counterscreen for inhibitors of Trypanosoma brucei methionyl tRNA synthetase (MetRS): Luminescence-based cell-based high throughput dose response assay to identify compounds that are cytotoxic to Jurkat human T lymphocyte cells.; type: functional
[5] = Counterscreen for inhibitors of Trypanosoma brucei methionyl tRNA synthetase (MetRS): Luminescence-based cell-based high throughput dose response assay to identify compounds that are cytotoxic to Jurkat human T lymphocyte cells.; type: functional
[6] = molecular target: T1, Methionyl-tRNA synthetase, putative; type: functional, Trypanosoma brucei brucei strain 927/4 GUTat10.1; remark: listed apart in the source
[7] = molecular target: fMet-Leu-Phe receptor (Homo sapiens, UniProt P21462); test: FPR ligands, dose response (AID 519); type: functional
[8] = molecular target: Kallikrein-7 (Homo sapiens, UniProt P49862); test: Fluorescence Intensity-based biochemical primary high throughput dose response assay to identify activators of kallikrein-7 (K7) zymogen.
[9] = molecular target: Fatty acid synthase (Homo sapiens, UniProt P49327); test: FAS thioesterase domain inhibitors, SAR follow-up, biochemical, endpoint fluorescence intensity, powder samples (AID 652164); type: functional
[10] = Luminescence Cell-Based Dose Retest to Confirm Inhibitors of Cancer Stem Cells. [Related pubchem assays (depositor defined):AID2717, AID2721]; type: functional; conditions: Homo sapiens
[11] = HepG2 cell cytotoxicity, dose response, cytotoxicity control, ATP luminescence, cherry-pick, activator set 2 (AID 1053143); type: functional, cell-based
[12] = molecular target: 1-phosphatidylinositol 4,5-bisphosphate phosphodiesterase beta-3 (Homo sapiens, UniProt Q01970); test: Fluorescence-based biochemical high throughput dose response assay to identify inhibitors of phospholipase C isozymes (PLC-B3).
[13] = molecular target: 1-phosphatidylinositol 4,5-bisphosphate phosphodiesterase gamma-1 (Homo sapiens, UniProt P19174); test: Counterscreen for inhibitors of phospholipase C isozymes (PLC-B3): Fluorescence-based biochemical high throughput dose response assay to identify inhibitors of phospholipase C isozymes (PLC-gamma1).
[14] = HEK293T cell cytotoxicity, dose response, cytotoxicity control, CellTiter-Glo luminescence, cherry-picked samples, set 4 (AID 743441); type: functional, cell-based; conditions: HEK293
[15] = cytotoxicity in A549 cells, dose response, cytotoxicity control, cell-based, CellTiter-Glo luminescence, cherry-pick (AID 743484); type: functional

1-phosphatidylinositol 4,5-bisphosphate phosphodiesterase beta-3, sequence (Q01970 whole entry): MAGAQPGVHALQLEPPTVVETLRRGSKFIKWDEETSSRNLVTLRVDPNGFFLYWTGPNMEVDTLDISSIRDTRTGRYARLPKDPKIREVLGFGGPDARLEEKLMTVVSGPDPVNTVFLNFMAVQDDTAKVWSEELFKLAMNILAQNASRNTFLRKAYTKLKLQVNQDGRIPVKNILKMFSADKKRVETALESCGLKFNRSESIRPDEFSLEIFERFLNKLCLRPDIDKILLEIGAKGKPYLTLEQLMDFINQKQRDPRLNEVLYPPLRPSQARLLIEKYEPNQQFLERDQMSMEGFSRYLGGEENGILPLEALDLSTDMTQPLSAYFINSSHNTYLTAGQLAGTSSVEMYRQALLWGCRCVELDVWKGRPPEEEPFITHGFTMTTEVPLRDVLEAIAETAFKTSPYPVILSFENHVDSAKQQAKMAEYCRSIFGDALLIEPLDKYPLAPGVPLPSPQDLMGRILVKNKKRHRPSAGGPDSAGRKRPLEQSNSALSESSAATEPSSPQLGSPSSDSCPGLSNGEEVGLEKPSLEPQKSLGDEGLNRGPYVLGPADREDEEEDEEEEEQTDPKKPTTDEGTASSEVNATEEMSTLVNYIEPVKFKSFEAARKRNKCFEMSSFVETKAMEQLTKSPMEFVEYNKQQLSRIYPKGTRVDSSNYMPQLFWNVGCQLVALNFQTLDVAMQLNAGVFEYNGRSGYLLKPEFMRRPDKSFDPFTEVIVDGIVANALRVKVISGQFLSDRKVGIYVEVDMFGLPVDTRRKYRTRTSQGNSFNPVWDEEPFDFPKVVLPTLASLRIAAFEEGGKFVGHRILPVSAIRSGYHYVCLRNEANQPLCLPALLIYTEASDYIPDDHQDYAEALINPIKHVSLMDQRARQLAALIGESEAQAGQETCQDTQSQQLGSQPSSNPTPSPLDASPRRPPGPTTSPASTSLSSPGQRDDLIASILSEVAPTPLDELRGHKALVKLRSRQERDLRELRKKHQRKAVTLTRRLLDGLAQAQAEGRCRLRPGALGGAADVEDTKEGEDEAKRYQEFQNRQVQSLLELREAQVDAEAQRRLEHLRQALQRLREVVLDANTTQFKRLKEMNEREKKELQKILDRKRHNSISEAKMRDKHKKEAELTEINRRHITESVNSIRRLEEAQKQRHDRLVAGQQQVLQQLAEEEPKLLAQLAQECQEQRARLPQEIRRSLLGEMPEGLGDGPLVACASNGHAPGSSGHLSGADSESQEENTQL
Caspase-6, sequence (P55212 24-179 limits assumed): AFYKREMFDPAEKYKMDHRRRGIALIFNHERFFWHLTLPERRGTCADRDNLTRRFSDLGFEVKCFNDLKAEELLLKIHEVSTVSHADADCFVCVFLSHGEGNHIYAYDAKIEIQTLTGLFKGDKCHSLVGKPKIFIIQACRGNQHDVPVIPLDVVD
Caspase-6, sequence (P55212 194-293 limits assumed): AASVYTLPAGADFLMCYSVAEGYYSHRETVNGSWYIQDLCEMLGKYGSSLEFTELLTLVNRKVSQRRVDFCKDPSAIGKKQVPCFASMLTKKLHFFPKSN
1-phosphatidylinositol 4,5-bisphosphate phosphodiesterase gamma-1, sequence (P19174 whole entry): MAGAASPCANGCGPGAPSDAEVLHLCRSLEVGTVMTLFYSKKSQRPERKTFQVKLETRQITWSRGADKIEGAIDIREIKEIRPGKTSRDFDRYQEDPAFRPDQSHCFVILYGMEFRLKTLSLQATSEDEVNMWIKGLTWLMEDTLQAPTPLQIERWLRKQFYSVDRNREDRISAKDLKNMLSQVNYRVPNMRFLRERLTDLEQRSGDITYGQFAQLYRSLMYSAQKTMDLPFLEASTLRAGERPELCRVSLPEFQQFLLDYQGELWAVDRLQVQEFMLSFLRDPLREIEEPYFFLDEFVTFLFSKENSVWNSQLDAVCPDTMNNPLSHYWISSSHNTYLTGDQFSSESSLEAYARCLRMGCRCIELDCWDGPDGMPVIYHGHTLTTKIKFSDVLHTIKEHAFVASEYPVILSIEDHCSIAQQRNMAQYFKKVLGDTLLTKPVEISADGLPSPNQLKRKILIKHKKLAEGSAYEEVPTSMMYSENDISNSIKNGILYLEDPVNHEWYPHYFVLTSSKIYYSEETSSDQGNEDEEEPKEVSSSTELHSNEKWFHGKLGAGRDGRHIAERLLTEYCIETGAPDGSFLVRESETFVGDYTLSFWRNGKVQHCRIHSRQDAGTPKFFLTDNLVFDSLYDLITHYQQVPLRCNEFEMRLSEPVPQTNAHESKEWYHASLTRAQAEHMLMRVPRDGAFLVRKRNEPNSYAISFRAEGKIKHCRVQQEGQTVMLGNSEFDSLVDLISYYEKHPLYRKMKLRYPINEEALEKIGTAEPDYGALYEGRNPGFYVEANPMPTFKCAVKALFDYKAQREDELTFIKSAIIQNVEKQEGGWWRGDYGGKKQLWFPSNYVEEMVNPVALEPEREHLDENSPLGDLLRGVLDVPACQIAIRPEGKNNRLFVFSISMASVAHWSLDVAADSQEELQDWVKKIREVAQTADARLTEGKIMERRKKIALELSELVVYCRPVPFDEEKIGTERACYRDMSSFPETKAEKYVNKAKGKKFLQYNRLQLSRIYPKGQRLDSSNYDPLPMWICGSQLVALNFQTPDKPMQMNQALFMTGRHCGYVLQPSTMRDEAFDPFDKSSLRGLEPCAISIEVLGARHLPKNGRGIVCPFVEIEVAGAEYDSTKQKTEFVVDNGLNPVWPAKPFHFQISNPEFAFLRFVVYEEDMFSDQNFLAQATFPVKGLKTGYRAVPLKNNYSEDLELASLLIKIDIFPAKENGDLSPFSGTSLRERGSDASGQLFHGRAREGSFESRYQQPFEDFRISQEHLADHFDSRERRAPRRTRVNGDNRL
Kallikrein-7, sequence (P49862 whole entry, the tested form may be a part): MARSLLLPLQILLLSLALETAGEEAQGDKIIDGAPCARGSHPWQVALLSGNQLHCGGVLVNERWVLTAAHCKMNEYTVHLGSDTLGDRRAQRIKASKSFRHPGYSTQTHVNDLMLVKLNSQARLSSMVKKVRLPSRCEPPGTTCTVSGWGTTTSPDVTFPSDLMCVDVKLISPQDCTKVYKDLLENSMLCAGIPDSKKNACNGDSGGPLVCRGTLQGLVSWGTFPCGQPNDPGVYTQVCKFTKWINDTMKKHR
fMet-Leu-Phe receptor, sequence (P21462 whole entry): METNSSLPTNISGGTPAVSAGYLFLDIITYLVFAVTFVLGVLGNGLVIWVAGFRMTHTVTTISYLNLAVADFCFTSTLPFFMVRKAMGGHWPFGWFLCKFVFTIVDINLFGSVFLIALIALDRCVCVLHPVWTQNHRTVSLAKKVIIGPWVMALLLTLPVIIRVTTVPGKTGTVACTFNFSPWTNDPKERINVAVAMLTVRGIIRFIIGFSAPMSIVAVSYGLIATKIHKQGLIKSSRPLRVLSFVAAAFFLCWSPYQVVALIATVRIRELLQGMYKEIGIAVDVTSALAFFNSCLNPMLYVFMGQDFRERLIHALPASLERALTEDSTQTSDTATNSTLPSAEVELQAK

Cc1cc(C2(O)C(=O)Nc3ccccc32)ccc1F (stereo not given)
AC50 [1]: 13 µM (active)

N#Cc1ccc(-c2ccc3c(c2)[C@H]2[C@H](CCN2C(=O)C2CCCCC2)[C@H](CO)N3)cc1
AC50 [2]: 42 µM (active)

CN(CC(=O)Nc1ccc(Cl)cc1)C(=O)c1ccc(-n2cncn2)c([N+](=O)[O-])c1
IC50 [3]: 1.18 µM (active)
IC50 [4]: > 83.3 µM (inactive)
IC50 [5]: 83.3 µM (inactive)
IC50 [6]: 2 µM (active)

COc1ccc(OC)c(C2C(C(=O)c3ccccc3)=C(O)C(=O)N2Cc2ccco2)c1 (stereo not given)
Ki [7]: 3.4 µM (active)

CSc1ccc(/C=C/C(=O)OCC(=O)NC2CCS(=O)(=O)C2)cc1 (stereo not given)
EC50 [8]: > 69.5 µM (inactive)

CCCCC(=O)Nc1nc(-c2ccc(C(=O)N3CCOCC3)cc2)cs1
IC50 [9]: 35.3 µM (inactive)

Cc1ccc(C(=O)Nc2ncc(Cc3ccccc3)s2)o1
AC50 [10]: 0.319 µM (active)
AC50 [11]: 12 µM (active)

Cc1ccc(NC(=O)c2nn(C34CC5CC(CC(C5)C3)C4)cc2[N+](=O)[O-])cc1
IC50 [12]: > 122 µM (inactive)
IC50 [13]: > 122 µM (inactive)

C=CCNC(=O)c1ccccc1NC(=O)c1ccc(Cl)c(S(=O)(=O)Nc2cccc(C)c2C)c1
AC50 [14]: 36.7 µM (active)
AC50 [15]: 30.1 µM (active)
